Data on 1 compound can be found in patent US12708620B2, “Prodrugs and medical uses thereof” (priority 2018, dated 2026).

Structures are written as SMILES.

For one data set, the system named is NCI-H69 tumor xenograft. Put plainly: lung cancer (SCLC) xenograft model. Format: in vivo, BALB/c Nude Mice. The settings on record: for Anti-tumor effect: 600 mg/kg IP, hypoxic status confirmed, methanesulfonate, 600 mg/kg. How it is done:
(§1) All animal models were established as xenograft model in BALB/c Nude Mice (6-8 weeks old, 17-23 grams, maintained in standard conditions and diet), following approved IACUC (Institutional Animal Care and Use Committees) protocols. Cpd.11 Ms was formulated using 2% dimethyl sulfoxide (DMSO in water for injection, starting from a Cpd.11 Ms main preparation (100-60 mg/ml in 2% DMSO in water for injection).
After tumor cell inoculation, the animals were checked daily for morbidity and mortality. Before commencement of treatment all animals were weighed and the tumor volumes were measured using a caliper. The treatments were started when the mean tumor size reached approx. 250 mm^3. […] The date of tumor cell inoculation was denoted as day 0 (thus injections were performed at day 1, 2, 3, 4, and 5). At the time of routine monitoring, the animals were checked for any effects of tumor growth and treatments on normal behavior such as mobility, visual estimation of food and water consumption, body weight gain/loss (body weights were measured daily during the 5-day treatment and thrice weekly after treatment), eye/hair matting and any other abnormal effect. Death and observed clinical signs were recorded on the basis of the numbers of animals within each subset. Tumor volumes were measured daily during the 5-day treatment and thrice weekly after treatment in two dimensions using a caliper, and the volume was expressed in mm3 using the formula: V=0.5 a×b2 where a and b are the long and short diameters of the tumor, respectively. The entire procedures of dosing as well as tumor and body weight measurement were conducted in a Laminar Flow Cabinet. Individual mice were euthanized by cervical dislocation when the tumor size reached 1400-1600 mm3. The surrogate endpoint for survival was calculated and indicated as TVx4 (initial tumor volume times 4). Statistical analysis of difference in tumor volume among the groups was conducted at the end of experiment using Independent-Samples T Test. All data were analyzed in SPSS (Statistical Product and Service Solutions) version 18.0 (IBM, Armonk, NY, U.S.). P-values were rounded to three decimal places, with the exception that raw P-values less than 0.001 were stated as P<0.001. All tests were two-sided. P<0.05 was considered to be statistically significant.
For the MDA-MB-436 tumor (ATCC: HTB-130; Passage: P4) cells were maintained in vitro as a monolayer culture in L-15 medium supplemented with 10% heat inactivated fetal bovine serum at 37° C. in an atmosphere of 100% air. For NCI-H69 (ATCC: HTB-119; Passage: P3), tumor cells were maintained in vitro in RPMI1640 medium supplemented with 10% fetal bovine serum at 370C in an atmosphere of 5% CO2 in air. For PANC-1 (ATCC: CRL-1469; Passage: P2) tumor cells were maintained in vitro as a monolayer culture in DMEM medium supplemented with 10% heat inactivated fetal bovine serum at 37 °C in an atmosphere of 5% CO2 in air. The tumor cells were routinely sub-cultured twice weekly by trypsin-EDTA treatment. The cells growing in an exponential growth phase were harvested and counted for tumor inoculation. Each mouse was inoculated with 1×10^7 tumor cells (orthotopically at the right mammary fat pad for MDA-MB-436 model, or subcutaneously at the right flank region for both NCI-H69 model and PANC-1 model) in 0.1 ml of PBS mixed with Matrigel (1:1, Corning, #354234) for tumor development. […]

The subject of the next data set is DMS 114 tumor xenograft. Put plainly: lung cancer (SCLC) xenograft model. In kind it is in vivo, BALB/c Nude Mice. Conditions: DMS 114 xenograft; 600 mg/kg IP; hypoxic status confirmed. How it is done:
as §1
(§2) After tumor cell inoculation, the animals were checked daily for morbidity and mortality. Before commencement of treatment all animals were weighed and the tumor volumes were measured using a caliper. The treatments were started when the mean tumor size reached approx. 250 mm^3. […] At the time of routine monitoring, the animals were checked for any effects of tumor growth and treatments on normal behavior such as mobility, visual estimation of food and water consumption, body weight gain/loss (body weights were measured daily during the 5-day treatment and thrice weekly after treatment), eye/hair matting and any other abnormal effect. Death and observed clinical signs were recorded on the basis of the numbers of animals within each subset. […] The surrogate endpoint for survival was calculated and indicated as TVx4 (initial tumor volume times 4). […] All data were analyzed in SPSS (Statistical Product and Service Solutions) version 18.0 (IBM, Armonk, NY, U.S.). […]

Data set [1] relates to NCI-H1650 tumor xenograft. Put plainly: lung cancer (NSCLC) xenograft model. In kind it is in vivo, BALB/c Nude Mice. Here is the method:
as §1, §2

In a further data set the test system is PANC-1 tumor xenograft. As to the kind of experiment: pancreatic cancer (PDAC) xenograft model. In kind it is in vivo, BALB/c Nude Mice. The settings on record: PANC-1 xenograft; for Anti-tumor effect: 600 mg/kg IP, hypoxic status confirmed, methanesulfonate, 600 mg/kg. Here is the method: as §1
After tumor cell inoculation, the animals were checked daily for morbidity and mortality. Before commencement of treatment all animals were weighed and the tumor volumes were measured using a caliper. The treatments were started when the mean tumor size reached approx. 250 mm^3. Each treated/control group contained 10 mice that were randomly assigned and injected daily for 5 days. The date of tumor cell inoculation was denoted as day 0 (thus injections were performed at day 1, 2, 3, 4, and 5). At the time of routine monitoring, the animals were checked for any effects of tumor growth and treatments on normal behavior such as mobility, visual estimation of food and water consumption, body weight gain/loss (body weights were measured daily during the 5-day treatment and thrice weekly after treatment), eye/hair matting and any other abnormal effect. Death and observed clinical signs were recorded on the basis of the numbers of animals within each subset. Tumor volumes were measured daily during the 5-day treatment and thrice weekly after treatment in two dimensions using a caliper, and the volume was expressed in mm3 using the formula: V=0.5 a×b2 where a and b are the long and short diameters of the tumor, respectively. The entire procedures of dosing as well as tumor and body weight measurement were conducted in a Laminar Flow Cabinet. Individual mice were euthanized by cervical dislocation when the tumor size reached 1400-1600 mm3. The surrogate endpoint for survival was calculated and indicated as TVx4 (initial tumor volume times 4). Statistical analysis of difference in tumor volume among the groups was conducted at the end of experiment using Independent-Samples T Test. All data were analyzed in SPSS (Statistical Product and Service Solutions) version 18.0 (IBM, Armonk, NY, U.S.). P-values were rounded to three decimal places, with the exception that raw P-values less than 0.001 were stated as P<0.001. All tests were two-sided. P<0.05 was considered to be statistically significant.
For the MDA-MB-436 tumor (ATCC: HTB-130; Passage: P4) cells were maintained in vitro as a monolayer culture in L-15 medium supplemented with 10% heat inactivated fetal bovine serum at 37° C. in an atmosphere of 100% air. […] The cells growing in an exponential growth phase were harvested and counted for tumor inoculation. […]

The test system of another data set is MiaPaca-2. Put plainly: in vitro cell culture sensitivity in anoxic conditions. Format: cell-based, human.
The subject of another data set is SW1990. The data set is described as above. In kind it is cell-based, human.
Data set [2] is described as follows: water solubility for preparing injection dilution.
Setting [3] is: single treatment cycle, listed as Cpd.11Ms.

What is called solubility is the dissolved amount per volume that the medium holds. Low readings indicate little dissolved substance, high ones much dissolved substance. Turning to `CCN1CCN(C(=O)c2cc(N(CCBr)CCOS(C)(=O)=O)c(S(C)(=O)=O)cc2[N+](=O)[O-])CC1.CS(=O)(=O)O` [Cpd.11 Ms, 4-(5-((2-bromoethyl) (2-((methylsulfonyl)oxy)ethyl)amino)-4-(methylsulfonyl)-2-nitrobenzoyl)-1-ethylpiperazin-1-ium methanesulfonate], the Anti-tumor effect result in the data set with NCI-H69 tumor xenograft (setting [3]) is on record as “Strong impact,”; with NCI-H69 tumor xenograft (single treatment cycle), “significant regression of the tumours”; in the data set with DMS 114 tumor xenograft, “Clear impact,”; in data set [1] (600 mg/kg IP, hypoxic status confirmed) it was “Clear impact,”; in the data set on PANC-1 tumor xenograft (setting [3]), “Clear impact,”; in the data set with PANC-1 tumor xenograft (single treatment cycle), “significant tumour growth retardation”. Moreover, the “therapeutic response with alternative regimens” value in the data set with NCI-H69 tumor xenograft (repeated administration over 3 weeks) is “longer term tumor control”. For the same compound, the “effects on body weight” value in the data set on NCI-H69 tumor xenograft (single treatment cycle, IP) was “absence of effects on body weight”. The “median surrogate survival index (TVx4) in comparison to vehicle treated animals” value in the data set with NCI-H69 tumor xenograft (single treatment cycle, IP) is listed as “doubled”. In addition, in data set [1] (single treatment cycle), the “median surrogate survival index” value is “significant effect”. The body weight loss result in the data set with PANC-1 tumor xenograft (IP) was “without major body weight loss”. The “increase in median surrogate survival index” value in the data set with PANC-1 tumor xenograft (single treatment cycle, P=0.0018) was “approx. 50%”. Moreover, the “sensitivity in anoxic conditions in vitro” value in the data set on MiaPaca-2 and with SW1990 was “highly Cpd.11 Ms-sensitive” each time. In data set [2], this compound displayed a solubility of at least 100 mg/mL.
